Measurements from patent EP4667483A1, “HUMAN TRANSFERRIN RECEPTOR-BINDING PEPTIDE” (JCR Pharmaceuticals Co., Ltd., priority 2023, dated 2024).
Bridge positions count the residues as written; N and C are the ends. Square brackets hold non-standard residues; d marks the D form. Peptide text beside a SMILES is read from it. * marks the point of attachment. Ala(imidazo(1,2-a)pyr3yl) = N[C@@H](Cc1cnc2ccccn12)C(=O)O; Trp(1-CH2COOH) = N[C@@H](Cc1cn(CC(=O)O)c2ccccc12)C(=O)O; CH2CON(CH2CH2)2NCH2COOH = O=C(O)CN1CCN(C(=O)C*)CC1; NMePhe(4-COOH) = CN[C@@H](Cc1ccc(C(=O)O)cc1)C(=O)O; Nle(6-morpholino) = N[C@@H](CCCCN1CCOCC1)C(=O)O; Phe(3-COOH) = N[C@@H](Cc1cccc(C(=O)O)c1)C(=O)O; Trp(7-aza) = N[C@@H](Cc1c[nH]c2ncccc12)C(=O)O; NH(CH2CH2O)8Me = COCCOCCOCCOCCOCCOCCOCCOCCN*; NMePhe(3-Cl) = CN[C@@H](Cc1cccc(Cl)c1)C(=O)O; Trp(1-Me) = Cn1cc(C[C@H](N)C(=O)O)c2ccccc21; 3Pal(6-OMe) = COc1ccc(C[C@H](N)C(=O)O)cn1; 3Pal(6-NH2) = Nc1ccc(C[C@H](N)C(=O)O)cn1; NMeW = CN[C@@H](Cc1c[nH]c2ccccc12)C(=O)O; Lys(N3) = [N-]=[N+]=NCCCC[C@H](N)C(=O)O; NMeY = CN[C@@H](Cc1ccc(O)cc1)C(=O)O; Nva(3-Et) = CCC(CC)[C@H](N)C(=O)O; NMeF = CN[C@@H](Cc1ccccc1)C(=O)O; 4Pal = N[C@@H](Cc1ccncc1)C(=O)O; PEG4 = NCCOCCOCCOCCOCCC(=O)O; Carboxymethyl = O=C(O)C*; NH(CH2)3NH2 = NCCCN*

What was measured:
[1] = target: T1, human transferrin receptor (hTfR) (Homo sapiens, UniProt P02786); assay: SPR measurement under pH 7.4 conditions (Biacore T200, CM3 chip, hTfR captured by His Tag antibody); assay type: binding; settings: read-out: hTfR SPR pH7.4 KD
T1 sequence (P02786 whole entry): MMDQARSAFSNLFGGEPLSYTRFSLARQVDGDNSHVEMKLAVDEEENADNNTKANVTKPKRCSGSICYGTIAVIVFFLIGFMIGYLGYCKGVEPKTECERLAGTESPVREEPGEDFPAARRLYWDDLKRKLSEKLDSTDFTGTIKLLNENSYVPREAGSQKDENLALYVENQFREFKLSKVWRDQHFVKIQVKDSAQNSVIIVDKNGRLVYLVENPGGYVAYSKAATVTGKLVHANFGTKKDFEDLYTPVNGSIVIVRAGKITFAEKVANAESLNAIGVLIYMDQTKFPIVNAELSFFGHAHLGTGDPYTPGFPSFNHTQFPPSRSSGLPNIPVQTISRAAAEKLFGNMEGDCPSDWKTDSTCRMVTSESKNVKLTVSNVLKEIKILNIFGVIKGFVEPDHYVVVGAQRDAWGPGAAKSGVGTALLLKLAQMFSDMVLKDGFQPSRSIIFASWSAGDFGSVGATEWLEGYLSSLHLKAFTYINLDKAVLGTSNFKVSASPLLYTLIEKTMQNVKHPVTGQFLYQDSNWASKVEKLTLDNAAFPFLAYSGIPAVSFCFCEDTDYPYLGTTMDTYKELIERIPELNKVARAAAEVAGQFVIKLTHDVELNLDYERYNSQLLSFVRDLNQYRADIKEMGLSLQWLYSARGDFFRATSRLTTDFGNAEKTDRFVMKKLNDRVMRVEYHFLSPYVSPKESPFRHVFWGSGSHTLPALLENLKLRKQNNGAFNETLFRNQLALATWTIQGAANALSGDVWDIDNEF

[2] = target: T1, human transferrin receptor (hTfR); assay: SPR measurement under pH 6.0 conditions (Biacore T200, NTA chip, immobilized hTfR); assay type: binding; settings: read-out: hTfR SPR pH6.0 KD
[3] = SPR, pH 7.4, peptide with the linker named in the table
[4] = SPR, pH 6.0, peptide with the linker named in the table

SMILES	Kd ([1]; pH 7.4, single-cycle kinetics) [nM]	Kd ([2]; pH 6.0, single-cycle kinetics) [nM]	other results
CC[C@H](C)[C@@H]1NC(=O)[C@H](Cc2ccc(OCC(=O)N3CCN(CC(=O)O)CC3)cc2)NC(=O)[C@H](Cc2ccc(O)cc2)NC(=O)[C@H](CC(N)=O)NC(=O)[C@H](Cc2c[nH]c3ncccc23)NC(=O)[C@H](C(C)C)NC(=O)[C@H](Cc2cccc(Cl)c2)N(C)C(=O)[C@H](C(C)C)NC(=O)[C@H](C)NC(=O)CSC[C@@H](C(=O)NCCOCCOCCOCCOCCC(N)=O)NC(=O)[C@H](Cc2ccc(O)cc2)N(C)C(=O)[C@H](Cc2ccncc2)NC(=O)[C@H](CCCNC(=N)N)NC(=O)[C@H](CCC(N)=O)NC(=O)[C@H]([C@@H](C)CC)NC1=O [compound 16]	2.94	40.3	–
CC[C@H](C)[C@@H]1NC(=O)[C@H](Cc2ccc(OCC(=O)N3CCN(CC(=O)O)CC3)cc2)NC(=O)[C@H](Cc2ccc(O)cc2)NC(=O)[C@H](CC(N)=O)NC(=O)[C@H](Cc2c[nH]c3ncccc23)NC(=O)[C@H](C(C)C)NC(=O)[C@H](Cc2cccc(Cl)c2)N(C)C(=O)[C@H](C(C)C)NC(=O)[C@H](C)NC(=O)CSC[C@@H](C(=O)NCCOCCOCCOCCOCCC(N)=O)NC(=O)[C@H](Cc2ccc(O)cc2)N(C)C(=O)[C@H](Cc2cccc(C(=O)O)c2)NC(=O)[C@H](CCCNC(=N)N)NC(=O)[C@H](CCC(=O)NCCOCCOCCOCCOCCOCCOCCOCCOC)NC(=O)[C@H]([C@@H](C)CC)NC1=O [compound 42]	5.11	34.4	–
CC[C@H](C)[C@@H]1NC(=O)[C@H](Cc2ccc(OC)cc2)NC(=O)[C@H](Cc2ccc(N)nc2)NC(=O)[C@H](CC(N)=O)NC(=O)[C@H](Cc2cnc3ccccn23)NC(=O)[C@H](C(C)C)NC(=O)[C@H](Cc2cccc(Cl)c2)N(C)C(=O)[C@H](C(C)C)NC(=O)[C@H](C)NC(=O)CSC[C@@H](C(=O)NCCOCCOCCOCCOCCC(N)=O)NC(=O)[C@H](Cc2ccc(O)cc2)N(C)C(=O)[C@H](Cc2ccncc2)NC(=O)[C@H](CCCNC(=N)N)NC(=O)[C@H](CCCNC(=N)N)NC(=O)[C@H]([C@@H](C)CC)NC1=O [compound 65] ({CH2CO}-AV[NMePhe(3-Cl)]V[Ala(imidazo(1,2-a)pyr3yl)]N[3Pal(6-NH2)]Y(Me)IIRR[4Pal][NMeY]C[PEG4]-NH2; thioether N-15)	5.43	56.5	–
CC[C@H](C)[C@@H]1NC(=O)[C@H](Cc2ccc(OC)cc2)NC(=O)[C@H](Cc2ccc(O)cc2)NC(=O)[C@H](CC(N)=O)NC(=O)[C@H](Cc2c[nH]c3ncccc23)NC(=O)[C@H](C(C)C)NC(=O)[C@H](Cc2cccc(Cl)c2)N(C)C(=O)[C@H](C(C)C)NC(=O)[C@H](C)NC(=O)CSC[C@@H](C(=O)NCCOCCOCCOCCOCCC(N)=O)NC(=O)[C@H](Cc2ccc(O)cc2)N(C)C(=O)[C@H](CCC(=O)NCCOCCOCCOCCOCCC(=O)O)NC(=O)[C@H](CCCNC(=N)N)NC(=O)[C@H](CCC(=O)NCCOCCOCCOCCOCCC(=O)O)NC(=O)[C@H]([C@@H](C)CC)NC1=O [compound 145] ({CH2CO}-AV[NMePhe(3-Cl)]V[Trp(7-aza)]NYY(Me)IIE(PEG4)RE(PEG4)[NMeY]C[PEG4]-NH2; thioether N-15)	–	–	Kd [1, 3]: 48.5 nM; Kd [2, 4]: 199 nM
CC[C@H](C)[C@@H]1NC(=O)[C@H](Cc2ccc(OCC(=O)N3CCN(CC(=O)O)CC3)cc2)NC(=O)[C@H](Cc2ccc(O)cc2)NC(=O)[C@H](CC(N)=O)NC(=O)[C@H](Cc2c[nH]c3ncccc23)NC(=O)[C@H](C(C)C)NC(=O)[C@H](Cc2cccc(Cl)c2)N(C)C(=O)[C@H](C(C)C)NC(=O)[C@H](C)NC(=O)CSC[C@@H](C(=O)NCCOCCOCCOCCOCCC(N)=O)NC(=O)[C@H](Cc2ccc(O)cc2)N(C)C(=O)[C@H](Cc2cccc(C(=O)O)c2)NC(=O)[C@H](CCCCN2CCOCC2)NC(=O)[C@H](CCC(=O)NCCOCCOCCOCCOCCOCCOCCOCCOC)NC(=O)[C@H]([C@@H](C)CC)NC1=O [compound 21] ({CH2CO}-AV[NMePhe(3-Cl)]V[Trp(7-aza)]NYY(CH2CON(CH2CH2)2NCH2COOH)IIE(NH(CH2CH2O)8Me)[Nle(6-morpholino)][Phe(3-COOH)][NMeY]C[PEG4]-NH2; thioether N-15)	5.37	101	–
CCC(CC)[C@@H]1NC(=O)[C@H](Cc2ccc(OC)cc2)NC(=O)[C@H](Cc2ccc(O)cc2)NC(=O)[C@H](CC(N)=O)NC(=O)[C@H](Cc2cn(C)c3ccccc23)NC(=O)[C@H](C(C)C)NC(=O)[C@H](Cc2cccc(Cl)c2)N(C)C(=O)[C@H](C(C)C)NC(=O)[C@H](C)NC(=O)CSC[C@@H](C(=O)NCCOCCOCCOCCOCCC(N)=O)NC(=O)[C@H](Cc2ccc(O)cc2)N(C)C(=O)[C@H](Cc2ccncc2)NC(=O)[C@H](CCCNC(=N)N)NC(=O)[C@H](CCCCN)NC(=O)[C@H]([C@@H](C)CC)NC1=O [compound 128] ({CH2CO}-AV[NMePhe(3-Cl)]V[Trp(1-Me)]NYY(Me)[Nva(3-Et)]IKR[4Pal][NMeY]C[PEG4]-NH2; thioether N-15)	–	–	Kd [1, 3]: 1.1 nM; Kd [2, 4]: 3.23 nM
CC[C@H](C)[C@@H]1NC(=O)[C@H](Cc2ccc(OC)cc2)NC(=O)[C@H](Cc2ccc(N)nc2)NC(=O)[C@H](CC(N)=O)NC(=O)[C@H](Cc2c[nH]c3ncccc23)NC(=O)[C@H](C(C)C)NC(=O)[C@H](Cc2cccc(Cl)c2)N(C)C(=O)[C@H](C(C)C)NC(=O)[C@H](C)NC(=O)CSC[C@@H](C(=O)NCC(=O)N[C@@H](CCCCN=[N+]=[N-])C(N)=O)NC(=O)[C@H](Cc2ccc(O)cc2)N(C)C(=O)[C@H](Cc2ccncc2)NC(=O)[C@H](CCCNC(=N)N)NC(=O)[C@H](CCCNC(=N)N)NC(=O)[C@H]([C@@H](C)CC)NC1=O [compound 66]	2.27	16.1	–
CC[C@H](C)[C@@H]1NC(=O)[C@H](Cc2ccc(OCC(=O)N3CCN(CC(=O)O)CC3)cc2)NC(=O)[C@H](Cc2ccc(O)cc2)NC(=O)[C@H](CC(N)=O)NC(=O)[C@H](Cc2cn(CC(=O)O)c3ccccc23)NC(=O)[C@H](C(C)C)NC(=O)[C@H](Cc2cccc(Cl)c2)N(C)C(=O)[C@H](C(C)C)NC(=O)[C@H](C)NC(=O)CSC[C@@H](C(=O)NCCOCCOCCOCCOCCC(N)=O)NC(=O)[C@H](Cc2ccc(O)cc2)N(C)C(=O)[C@H](Cc2ccncc2)NC(=O)[C@H](CCCNC(=N)N)NC(=O)[C@H](CCCCNC(=O)N2CCN(CC(=O)O)CC2)NC(=O)[C@H]([C@@H](C)CC)NC1=O [compound 34]	5.22	14.9	–
CC[C@H](C)[C@@H]1NC(=O)[C@H](Cc2ccc(OC)cc2)NC(=O)[C@H](Cc2ccc(N)nc2)NC(=O)[C@H](CC(N)=O)NC(=O)[C@H](Cc2c[nH]c3ccccc23)N(C)C(=O)[C@H](C(C)C)NC(=O)[C@H](Cc2cccc(Cl)c2)N(C)C(=O)[C@H](C(C)C)NC(=O)[C@H](C)NC(=O)CSC[C@@H](C(=O)NCCOCCOCCOCCOCCC(N)=O)NC(=O)[C@H](Cc2ccc(O)cc2)N(C)C(=O)[C@H](Cc2ccccc2)NC(=O)[C@H](CCCNC(=N)N)NC(=O)[C@H](CCC(=O)NCCCN)NC(=O)[C@H]([C@@H](C)CC)NC1=O [compound 172] ({CH2CO}-AV[NMePhe(3-Cl)]V[NMeW]N[3Pal(6-NH2)]Y(Me)IIE(NH(CH2)3NH2)RF[NMeY]C[PEG4]-NH2; thioether N-15)	0.215	2.59	–
CC[C@H](C)[C@@H]1NC(=O)[C@H](Cc2ccc(OC)cc2)NC(=O)[C@H](Cc2ccc(N)nc2)NC(=O)[C@H](CC(N)=O)NC(=O)[C@H](Cc2cnc3ccccn23)NC(=O)[C@H](C(C)C)NC(=O)[C@H](Cc2ccccc2)N(C)C(=O)[C@H](C(C)C)NC(=O)[C@H](C)NC(=O)CSC[C@@H](C(=O)NCC(=O)N[C@@H](CCCCN=[N+]=[N-])C(N)=O)NC(=O)[C@H](Cc2ccc(O)cc2)N(C)C(=O)[C@H](Cc2ccncc2)NC(=O)[C@H](CCCNC(=N)N)NC(=O)[C@H](CCCNC(=N)N)NC(=O)[C@H]([C@@H](C)CC)NC1=O [compound 190] ({CH2CO}-AV[NMeF]V[Ala(imidazo(1,2-a)pyr3yl)]N[3Pal(6-NH2)]Y(Me)IIRR[4Pal][NMeY]CG[Lys(N3)]-NH2; thioether N-15)	–	–	Kd ([1]; SPR, pH 7.4, Table 1-3-2-2): 57.1 nM; Kd ([2]; SPR, pH 6.0, Table 1-3-2-2): 177 nM
CCC(CC)[C@@H]1NC(=O)[C@H](Cc2ccc(OCC(=O)O)cc2)NC(=O)[C@H](Cc2ccc(O)cc2)NC(=O)[C@H](CC(N)=O)NC(=O)[C@H](Cc2cn(CC(=O)O)c3ccccc23)NC(=O)[C@H](C(C)C)NC(=O)[C@H](Cc2cccc(Cl)c2)N(C)C(=O)[C@H](C(C)C)NC(=O)[C@H](C)NC(=O)CSC[C@@H](C(=O)NCCOCCOCCOCCOCCC(N)=O)NC(=O)[C@H](Cc2ccc(O)cc2)N(C)C(=O)[C@H](Cc2ccc(OC)nc2)NC(=O)[C@H](CCCNC(=N)N)NC(=O)[C@H](CCC(N)=O)NC(=O)[C@H]([C@@H](C)CC)NC1=O [compound 101] ({CH2CO}-AV[NMePhe(3-Cl)]V[Trp(1-CH2COOH)]NYY(Carboxymethyl)[Nva(3-Et)]IQR[3Pal(6-OMe)][NMeY]C[PEG4]-NH2; thioether N-15)	–	–	Kd [1, 3]: 8.63 nM; Kd [2, 4]: 66.7 nM
CC[C@H](C)[C@@H]1NC(=O)[C@H](Cc2ccc(OC)cc2)NC(=O)[C@H](Cc2ccc(O)cc2)NC(=O)[C@H](CC(N)=O)NC(=O)[C@H](Cc2c[nH]c3ccccc23)N(C)C(=O)[C@H](C(C)C)NC(=O)[C@H](Cc2cccc(Cl)c2)N(C)C(=O)[C@H](C(C)C)NC(=O)[C@H](C)NC(=O)CSC[C@@H](C(=O)NCCOCCOCCOCCOCCC(N)=O)NC(=O)[C@H](Cc2ccc(C(=O)NCCOCCOCCOCCOCCC(=O)O)cc2)N(C)C(=O)[C@H](Cc2cccc(C(=O)O)c2)NC(=O)[C@H](CCCNC(=N)N)NC(=O)[C@H](CCCCN)NC(=O)[C@H]([C@@H](C)CC)NC1=O [compound 180] ({CH2CO}-AV[NMePhe(3-Cl)]V[NMeW]NYY(Me)IIKR[Phe(3-COOH)][NMePhe(4-COOH)](PEG4)C[PEG4]-NH2; thioether N-15)	0.229	0.957	–
